Test results: patent publication US9476099B2 (TRUSTEES OF DARTMOUTH COLLEGE, priority 2012, dated 2016)
Where “and” joins values, the source holds several entries; their conditions need not be identical. Identical values can stand only once.

Tested on: NT2/D1-R1 control and DNMT3B knockdown cells
Test: Genome-wide expression analysis with PAM clusters, control and DNMT3B knockdown cells (Tables 8-14)
Conditions: sh-Ctrl + aza
[1] = NT2/D1-R1, decitabine 10 nM 3 days

Nc1ncn([C@H]2C[C@H](O)[C@@H](CO)O2)c(=O)n1 [aza]
LOC644422 XR_019449 expression Mean (10 nM decitabine, 3 days): 332.598 | LOC647954 XR_018676 expression Mean (10 nM decitabine, 3 days): 1348.27 | LOC728715 XM_0011282 expression Mean (10 nM decitabine, 3 days): 1760.28 | M6PRBP1 NM_005817 expression Mean (10 nM decitabine, 3 days): 2017.94 | MBNL3 NM_133486 expression Mean (10 nM decitabine, 3 days): 338.893 | MCM4 NM_005914 expression Mean (10 nM decitabine, 3 days): 2945.56 | MEPCE NM_019606 expression Mean (10 nM decitabine, 3 days): 786.84 | METTL1 NM_005371 expression Mean (10 nM decitabine, 3 days): 412.423 | MORF4L2 NM_012286 expression Mean (10 nM decitabine, 3 days): 1621.68 | MRTO4 NM_016183 expression Mean (10 nM decitabine, 3 days): 893.853 | MT1E NM_175617 expression Mean (10 nM decitabine, 3 days): 2437.55 | MTA2 NM_004739 expression Mean (10 nM decitabine, 3 days): 453.486 | MYOF NM_013451 expression Mean (10 nM decitabine, 3 days): 302.746 | MYOF NM_133337 expression Mean (10 nM decitabine, 3 days): 612.957 | NACC2 NM_144653 expression Mean (10 nM decitabine, 3 days): 566.307 | NAT5 NM_181528 expression Mean (10 nM decitabine, 3 days): 1401.34 | NBPF10 NM_0010376 expression Mean (10 nM decitabine, 3 days): 816.642 | NBPF10 NM_0010397 expression Mean (10 nM decitabine, 3 days): 557.142 | NEFH NM_021076 expression Mean (10 nM decitabine, 3 days): 538.551 | NFE2 NM_006163 expression Mean (10 nM decitabine, 3 days): 459.796 | NM_002467 expression Mean (10 nM decitabine, 3 days): 896.83 | NM_0010397 expression Mean (10 nM decitabine, 3 days): 736.286 | NM_138781 expression Mean (10 nM decitabine, 3 days): 484.429 | NODAL NM_018055 expression Mean (10 nM decitabine, 3 days): 954.925 | NOP2 NM_0010337 expression Mean (10 nM decitabine, 3 days): 7589.18 | NOP56 NM_006392 expression Mean (10 nM decitabine, 3 days): 1764.44 | NP NM_000270 expression Mean (10 nM decitabine, 3 days): 475.426 | NR_002773 expression Mean (10 nM decitabine, 3 days): 596.315 | NR_003287 expression Mean (10 nM decitabine, 3 days): 634.816 | NTF3 NM_002527 expression Mean (10 nM decitabine, 3 days): 286.374 | NTS NM_006183 expression Mean (10 nM decitabine, 3 days): 641.496 | NUAK2 NM_030952 expression Mean (10 nM decitabine, 3 days): 309.88 and 403.382 | OAT NM_000274 expression Mean (10 nM decitabine, 3 days): 2902.41 | ODC1 NM_002539 expression Mean (10 nM decitabine, 3 days): 3243.03 | PAK1IP1 NM_017906 expression Mean (10 nM decitabine, 3 days): 644.744 | PEA15 NM_003768 expression Mean (10 nM decitabine, 3 days): 2263.16 | PEG3 NM_006210 expression Mean (10 nM decitabine, 3 days): 442.766 | PITX1 NM_002653 expression Mean (10 nM decitabine, 3 days): 947.042 | PLAU NM_002658 expression Mean (10 nM decitabine, 3 days): 1093.87 | PLEKHF1 NM_024310 expression Mean (10 nM decitabine, 3 days): 716.406 | POLR1C NM_203290 expression Mean (10 nM decitabine, 3 days): 533.492 and 971.221 | PPA2 NM_006903 expression Mean (10 nM decitabine, 3 days): 1058.5 | PPAN NM_002566 expression Mean (10 nM decitabine, 3 days): 615.062 | RBM22 NM_018047 expression Mean (10 nM decitabine, 3 days): 921.101 | RNMTL1 NM_018146 expression Mean (10 nM decitabine, 3 days): 708.14 | RPL6 NM_0010246 expression Mean (10 nM decitabine, 3 days): 1189.55 | RRM2 NM_001034 expression Mean (10 nM decitabine, 3 days): 697.476 | RSL1D1 NM_015659 expression Mean (10 nM decitabine, 3 days): 1413.6 | RUNX3 NM_004350 expression Mean (10 nM decitabine, 3 days): 484.199 | SERPINE1 NM_000602 expression Mean (10 nM decitabine, 3 days): 539.652 | SERTAD1 NM_013376 expression Mean (10 nM decitabine, 3 days): 534.101 | SFXN4 NM_213649 expression Mean (10 nM decitabine, 3 days): 724.081 | SIDT2 NM_0010404 expression Mean (10 nM decitabine, 3 days): 528.693 | SLC20A1 NM_005415 expression Mean (10 nM decitabine, 3 days): 1468.1 | SNAPC4 NM_003086 expression Mean (10 nM decitabine, 3 days): 1200.9 | SOCS2 NM_003877 expression Mean (10 nM decitabine, 3 days): 288.614 and 566.518 | SOX15 NM_006942 expression Mean (10 nM decitabine, 3 days): 2791.76 | SPANXD NM_145665 expression Mean (10 nM decitabine, 3 days): 210.19 | SPRYD5 NM_032681 expression Mean (10 nM decitabine, 3 days): 519.493 | SQSTM1 NM_003900 expression Mean (10 nM decitabine, 3 days): 2145.19 | SRRT NM_015908 expression Mean (10 nM decitabine, 3 days): 4196.33 | SUSD2 NM_019601 expression Mean (10 nM decitabine, 3 days): 2570.13 | TAGLN NM_003186 expression Mean (10 nM decitabine, 3 days): 1178.17 | TNFRSF12A NM_016639 expression Mean (10 nM decitabine, 3 days): 519.778 | TNFRSF13B NM_012452 expression Mean (10 nM decitabine, 3 days): 179.31 | TNPO1 NM_153188 expression Mean (10 nM decitabine, 3 days): 439.283 | TPRG1L NM_182752 expression Mean (10 nM decitabine, 3 days): 1513.68 | TRIM8 NM_030912 expression Mean (10 nM decitabine, 3 days): 922.659 | TTC4 NM_004623 expression Mean (10 nM decitabine, 3 days): 1457.62 | UTP14A NM_006649 expression Mean (10 nM decitabine, 3 days): 555.285 | WBSCR22 NM_017528 expression Mean (10 nM decitabine, 3 days): 1107.76 | XM_0011261 expression Mean (10 nM decitabine, 3 days): 718.505 | XM_0011281 expression Mean (10 nM decitabine, 3 days): 2231.09 | XR_015970 expression Mean (10 nM decitabine, 3 days): 1080.49 | XR_016703 expression Mean (10 nM decitabine, 3 days): 6659.76 | XR_017241 expression Mean (10 nM decitabine, 3 days): 10363 | XR_017543 expression Mean (10 nM decitabine, 3 days): 832.234 | ZDHHC6 NM_022494 expression Mean (10 nM decitabine, 3 days): 528.208 | ZHX2 NM_014943 expression Mean (10 nM decitabine, 3 days): 479.456 | A4GALT (NM_017436) gene expression, Mean [1]: 174.249 | ABR (NM_001092) gene expression, Mean [1]: 424.634 | ACACA (NM_198836) gene expression, Mean [1]: 443.13
